The target in data set [1] is T1, cross-linking of glycated bovine serum albumin (AGE-BSA) to the rat tail tendon collagen (Bos taurus, UniProt P02769).
T1 construct: glycated bovine serum albumin (AGE-BSA); from tissue; host or cells: collagen from rat tail tendon; BSA from bovine serum, glycated in house
Nature of the data set: Inhibition of cross-linking of glycated BSA (AGE-BSA) to rat tail tendon collagen coated 96-well plate (ELISA). It is filed as biochemical. How it is done: The cross-linked AGE-BSA to the tail tendon coated plate was then quantitated by the polyclonal antibody raised against AGE-RNase.
The % inhibition of each test compound was calculated as follows.

Data set [2] has as its target T2, AGE-BSA previously crosslinked to the collagen (Bos taurus, UniProt P02769).
T2 construct: Type V BSA (bovine serum albumin); purchased Calbiochem (BSA Type V); Collaborative Biomedical Products (Biocoat rat tail collagen type I plates)
Nature of the data set: Sandwich enzyme immunoassay for breaking of AGE moieties from AGE-BSA crosslinked to collagen (AGE breaker assay). It is filed as biochemical, bovine; rat. To be noted: for IC50: AGE breaking, 16 hours 37° C. On the procedure: The present invention also involves a novel sandwich enzyme immunoassay used to ascertain the ability of test compounds to “break” or reverse already formed advanced glycosylation endproducts by detecting the breaking of AGE (Advanced glycosylation endproduct) moieties from AGE-crosslinked protein. This assay comprises:
a) incubation of AGE-modified bovine serum albumin (AGE-BSA) on collagen-coated wells of microtiter plates for a period of 2-6 hours at a temperature of 37° C.;
b) washing of the wells with PBS-Tween;
c) application of the test compounds to the washed wells of step b;
d) incubation of the test compounds applied to the washed wells for an additional 12-24 hours at a temperature of about 37° C.; and
e) detection of the AGE-breaking using an antibody raised against AGE-ribonuclease or cross-link breaking with an antibody against BSA.
In order to ascertain the ability of the compounds of the instant invention to “break” or reverse already formed advanced glycosylation endproducts, a novel sandwich enzyme immunoassay was developed which detects breaking of AGE (Advanced glycosylation endproduct) moieties from AGE-crosslinked protein. The assay utilizes collagen-coated 96 will microtiter plates that are obtained commercially. AGE-modified protein (AGE-BSA) is incubated on the collagen-coated wells for four hours, is washed off the wells with PBS-Tween and the test compounds are added. Following an incubation period of 16 hours (37° C.) AGE-breaking is detected using an antibody raised against AGE-ribonuclease or with an antibody against BSA. […] Details of the assay are as follows:
1. AGE-BSA stock solutions were prepared as follows. Sodium phosphate buffer (0.4M) was prepared by dissolving 6 grams of monobasic sodium phosphate in 100 ml of distilled water, 7 grams of dibasic sodium phosphate (0.4M) in 100 ml of distilled water and adjusting the pH of the dibasic solution to 7.4 with the monobasic solution. Sodium azide (0.02 grams) was added per 100 ml volume to inhibit bacterial growth. The BSA solution was prepared as follows: 400 mg of Type V BSA (bovine serum albumin) was added for each ml of sodium phosphate buffer (above). A 400 mM glucose solution was prepared by dissolving […] of dextrose in 100 ml of sodium phosphate buffer (above). The BSA and glucose solutions were mixed 1:1 and incubated at 37° C. for 12 weeks. The pH of the incubation mixture was monitored weekly and adjusted to pH 7.4 if necessary. After 12 weeks, the AGE-BSA solution was dialyzed against PBS for 48 hours with four buffer changes, each at a 1:500 ratio of solution to dialysis buffer. Protein concentration was determined by the micro-Lowry method. The AGE-BSA stock solution was aliquoted and stored at −20° C.
2. Working solutions for crosslinking and breaking studies were prepared as follows. Test compounds were dissolved in PBS and the pH was adjusted to pH 7.4 if necessary. AGE-BSA stock solution was diluted in PBS to measure maximum crosslinking and in the inhibitor solution for testing inhibitory activity of compounds. The concentration of AGE-BSA necessary to achieve the optimum sensitivity was determined by initial titration of each lot of AGE-BSA.
3. Wash buffer (“PBS-Tween”) was prepared as follows. PBS was prepared by dissolving the following salts in one liter of distilled water: NaCl, 8 grams; KCl, 0.2 gram, KH2PO4. […] Tween-20 was added to a final concentration of 0.05% (vol/vol).
4. Substrates for detection of secondary antibody binding were prepared by diluting the HRP substrate buffer 1:10 in distilled water and mixing with ABTS chromogen 1:50 just prior to use.
1. Biocoat plates were blocked With 300 μl of “Superbloc”. Plates were blocked for one hour at room temperature and were washed with PBS-Tween three times with the Dynatech platewasher before addition of test reagents.
2. Each experiment was set up in the following manner.

Where [3] appears, read: read-out: % Inhibition Anti-AGE (at mM).
Setting [4] is: read-out: % Inhibition Anti-BSA (at mM).
[5] abbreviates: detection with anti-AGE-RNase antibody, read-out: IC50 (mM) Anti-AGE.
Setting [6] is: detection with anti-BSA antibody, read-out: IC50 (mM) Anti-BSA.

Structures can show the parent of a compound that is named as a salt. Where two headings read alike, the source gives them in different places.

The values below come from USRE38330E1, “Preventing and reversing advanced glycosylation endproducts” (Alteon Inc., priority 1995, dated 2003).

As a reminder, the melting point is the temperature of the solid-liquid transition. As usually defined, the IC50 is the midpoint of a concentration-inhibition curve. Usually inhibition stands for the percentage by which the read-out fell short of the control.

T1 sequence (P02769 25-607): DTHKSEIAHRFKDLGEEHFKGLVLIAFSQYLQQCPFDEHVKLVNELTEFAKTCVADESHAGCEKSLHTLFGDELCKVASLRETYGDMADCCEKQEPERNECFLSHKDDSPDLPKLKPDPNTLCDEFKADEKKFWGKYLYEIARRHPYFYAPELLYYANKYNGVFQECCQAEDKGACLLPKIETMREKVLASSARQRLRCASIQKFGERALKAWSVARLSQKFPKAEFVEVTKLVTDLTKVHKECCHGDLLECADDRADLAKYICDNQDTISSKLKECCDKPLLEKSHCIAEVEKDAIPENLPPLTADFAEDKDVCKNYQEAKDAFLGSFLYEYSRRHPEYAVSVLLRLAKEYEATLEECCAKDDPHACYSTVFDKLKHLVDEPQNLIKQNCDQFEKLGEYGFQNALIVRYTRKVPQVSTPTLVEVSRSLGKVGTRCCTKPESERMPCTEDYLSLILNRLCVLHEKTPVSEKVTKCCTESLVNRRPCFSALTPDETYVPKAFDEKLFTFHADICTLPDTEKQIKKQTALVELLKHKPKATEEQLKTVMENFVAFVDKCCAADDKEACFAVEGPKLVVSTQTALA
T2 sequence (P02769 25-607): as above
T2 sequence (P02454 152-1207 partner limits assumed): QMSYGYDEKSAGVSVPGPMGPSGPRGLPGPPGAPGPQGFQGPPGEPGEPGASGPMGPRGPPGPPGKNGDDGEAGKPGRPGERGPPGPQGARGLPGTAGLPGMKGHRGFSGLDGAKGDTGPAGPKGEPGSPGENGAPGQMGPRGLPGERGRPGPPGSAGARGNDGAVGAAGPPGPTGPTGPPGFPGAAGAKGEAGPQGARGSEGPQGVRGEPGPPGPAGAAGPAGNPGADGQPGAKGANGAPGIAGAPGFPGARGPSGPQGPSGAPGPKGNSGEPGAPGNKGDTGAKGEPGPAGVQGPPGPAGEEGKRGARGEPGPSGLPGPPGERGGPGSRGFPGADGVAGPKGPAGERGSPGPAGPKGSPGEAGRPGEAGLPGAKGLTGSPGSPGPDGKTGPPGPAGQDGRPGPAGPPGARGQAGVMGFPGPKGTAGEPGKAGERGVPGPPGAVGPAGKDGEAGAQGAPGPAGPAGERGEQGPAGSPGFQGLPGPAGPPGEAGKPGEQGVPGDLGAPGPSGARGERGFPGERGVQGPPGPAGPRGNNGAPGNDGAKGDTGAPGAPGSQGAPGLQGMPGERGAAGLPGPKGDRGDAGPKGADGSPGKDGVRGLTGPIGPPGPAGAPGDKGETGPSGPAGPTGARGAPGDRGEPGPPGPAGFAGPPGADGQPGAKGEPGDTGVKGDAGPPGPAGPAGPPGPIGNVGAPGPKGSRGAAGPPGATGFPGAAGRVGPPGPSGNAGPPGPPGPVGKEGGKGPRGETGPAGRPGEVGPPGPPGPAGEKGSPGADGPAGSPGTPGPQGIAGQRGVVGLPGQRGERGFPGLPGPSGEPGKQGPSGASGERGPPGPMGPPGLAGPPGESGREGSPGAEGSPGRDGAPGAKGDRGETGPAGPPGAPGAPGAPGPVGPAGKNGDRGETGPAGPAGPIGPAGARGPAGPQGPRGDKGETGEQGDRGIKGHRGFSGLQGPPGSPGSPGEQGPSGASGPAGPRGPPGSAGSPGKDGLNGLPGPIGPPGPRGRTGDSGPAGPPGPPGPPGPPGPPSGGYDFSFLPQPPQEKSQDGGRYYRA
T2 sequence (P02466 86-1125 partner limits assumed): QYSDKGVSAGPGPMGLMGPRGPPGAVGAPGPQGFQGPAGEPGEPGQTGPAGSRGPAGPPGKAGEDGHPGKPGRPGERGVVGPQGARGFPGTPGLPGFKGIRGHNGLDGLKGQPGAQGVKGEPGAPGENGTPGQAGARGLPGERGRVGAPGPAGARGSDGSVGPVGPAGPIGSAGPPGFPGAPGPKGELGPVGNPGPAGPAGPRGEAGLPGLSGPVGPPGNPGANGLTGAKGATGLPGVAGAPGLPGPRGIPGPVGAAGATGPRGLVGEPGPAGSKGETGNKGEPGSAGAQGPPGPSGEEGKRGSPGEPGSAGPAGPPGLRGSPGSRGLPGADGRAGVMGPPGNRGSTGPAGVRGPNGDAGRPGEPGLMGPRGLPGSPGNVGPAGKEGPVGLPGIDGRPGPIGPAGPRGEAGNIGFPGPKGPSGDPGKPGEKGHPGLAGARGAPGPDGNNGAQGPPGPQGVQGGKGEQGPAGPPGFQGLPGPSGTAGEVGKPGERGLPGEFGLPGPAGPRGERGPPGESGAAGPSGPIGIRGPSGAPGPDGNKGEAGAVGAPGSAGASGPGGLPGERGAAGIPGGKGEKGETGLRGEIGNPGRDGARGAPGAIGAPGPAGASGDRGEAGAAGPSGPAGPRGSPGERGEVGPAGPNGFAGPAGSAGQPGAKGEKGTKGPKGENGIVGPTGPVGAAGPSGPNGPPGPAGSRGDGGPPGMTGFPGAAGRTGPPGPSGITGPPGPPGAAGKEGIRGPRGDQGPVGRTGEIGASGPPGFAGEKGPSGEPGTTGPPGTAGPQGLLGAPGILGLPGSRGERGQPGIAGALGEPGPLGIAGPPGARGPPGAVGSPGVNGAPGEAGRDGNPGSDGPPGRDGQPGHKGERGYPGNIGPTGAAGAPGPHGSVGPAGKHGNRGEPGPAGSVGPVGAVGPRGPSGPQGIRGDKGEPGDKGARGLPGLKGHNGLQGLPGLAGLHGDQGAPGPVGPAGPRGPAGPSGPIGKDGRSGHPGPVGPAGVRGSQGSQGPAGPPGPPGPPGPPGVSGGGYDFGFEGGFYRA

For the compound `Cc1c(CCO)sc[n+]1CC(=O)c1ccc(Br)cc1` (as salt: bromide) [3-(2-[4^1-bromophenyl]-2-oxoethyl)-4-methyl-5-(2-hydroxyethyl)thiazolium bromide], the melting point is 251 to 252 °C (dec.).

On to `COC(=O)C[n+]1csc(C)c1.[Br-]` [3-(2-methoxy-2-oxoethyl)-5-methyl-thiazolium bromide], for which the melting point was 193 to 194 °C (dec.). In addition, in data set [1], the half-maximal inhibitory concentration (IC50) amounted to 73 µM. In addition, in data set [2] (setting [3]), the inhibition at 30000 µM amounted to 72%. Moreover, the inhibition at 30000 µM in data set [2] (setting [4]) is 27%.

As to `O=C(C[n+]1ccsc1)c1ccccc1` [3-(2-phenyl-2-oxoethyl)thiazolium bromide], the IC50 in data set [2] (setting [5]) was 20 µM; in data set [2] (setting [6]), 14 µM.

Compound `Cc1c(CCO)sc[n+]1CC(=O)c1ccc(Br)cc1` [3-(2-[4^1-bromophenyl]-2-oxoethyl)-4-methyl-5-(2-hydroxyethyl)thiazolium bromide] had an IC50 in data set [1] of 4510 µM.

As for `COC(=O)C[n+]1cscc1C.[Br-]` [3-(2-methoxy-2-oxoethyl)-4-methylthiazolium bromide], the melting point is 149 to 151 °C (dec.). The inhibition at 30000 µM in data set [2] (setting [3]) was determined as 54%. For the same compound, the inhibition at 30000 µM in data set [2] (setting [4]) was found to be 41%.

`Cc1c(CCO)sc[n+]1CC(N)=O` [3-(2-amino-2-oxoethyl)-4-methyl-5-(2-hydroxyethyl)thiazolium bromide]: the IC50 in data set [1] was determined as 1260 µM; in data set [2] (setting [5]) it was 12 µM; in data set [2] (setting [6]) it was 120 µM.

With `CC[n+]1csc(CCO)c1C.[Br-]`, the melting point lay within 84 to 85 °C.

In data set [1], `Cc1c[n+](CC(=O)c2ccccc2)cs1` [3-(2-phenyl-2-oxoethyl)-5-methyl-thiazolium bromide] displayed an IC50 of 13900 µM.

As for `O=C(C[n+]1ccsc1)c1ccc(Br)cc1.[Br-]` [3-(2-[4^1-bromophenyl]-2-oxoethyl)-thiazolium bromide], the “% Inhibition Anti-AGE (at mM)” value in data set [2] (at 30 mM, detection with anti-AGE-RNase antibody) amounted to 76%. In addition, the “% Inhibition Anti-BSA (at mM)” value in data set [2] (at 30 mM, detection with anti-BSA antibody) is 25%.

The compound `COC(=O)C[n+]1csc(CCOC(C)=O)c1C.[Br-]` returned a melting point of 217 to 218 °C.

Take `Cc1sc[n+](CC(=O)c2ccccc2)c1C` [3-(2-phenyl-2-oxoethyl)-4,5-dimethylthiazolium bromide]: the IC50 in data set [1] turned out to be 48500 µM. Further, the inhibition at 30000 µM in data set [2] (setting [3]) is 56%.

In turn, `COC(=O)C[n+]1csc(CCO)c1C.[Br-]` [3-(2-methoxy-2-oxoethyl)-4-methyl-5-(2-hydroxyethyl)-thiazolium bromide] showed a melting point of 137 to 138 °C.

The compound `NC(=O)C[n+]1ccsc1.[Br-]` [3-(2-amino-2-oxoethyl)thiazolium bromide, 3-(2-amino-2-oxoethyl)-thiazolium bromide] displayed a melting point of 205 to 206 °C. For the same compound, in data set [1], the IC50 was determined as 226 µM.

In turn, `Cc1sc[n+](CC(N)=O)c1C.[Br-]` [3-(2-amino-2-oxoethyl)-4,5-dimethyl-thiazolium bromide] displayed a melting point of 147 to 148 °C. The compound further came in with an IC50 in data set [1] of 338 µM. Also, the inhibition at 30000 µM in data set [2] (setting [3]) worked out at 69%. Moreover, the inhibition at 30000 µM in data set [2] (setting [4]) came to 75%.

With `NC(=O)C[n+]1csc2ccccc21.[Br-]` [3-(2-amino-2-oxoethyl)-benzothiazolium bromide], the melting point was in the range of 222 to 223 °C. This compound showed a half-maximal inhibitory concentration (IC50) in data set [1] of 618 µM. Besides, the IC50 in data set [2] (setting [5]) stood at 140 µM. In addition, in data set [2] (setting [6]), the half-maximal inhibitory concentration (IC50) was 520 µM.

Compound `Cc1c(CCO)sc[n+]1Cc1ccccc1.[Cl-]` [3-benzyl-5-(2-hydroxyethyl)-4-methyl thiazolium chloride] registered a melting point of 144 to 146 °C. In data set [2] (setting [5]), the half-inhibitory concentration (IC50) came out at 420 µM. Besides, in data set [2] (setting [6]), the IC50 worked out at 550 µM.

`Cc1c(CCO)sc[n+]1CC(=O)c1ccccc1` [3-(2-phenyl-2-oxoethyl)-4-methyl-5-(2-hydroxyethyl)-thiazolium bromide]: the half-maximal inhibitory concentration (IC50) in data set [2] (setting [5]) turned out to be 14300 µM.

In data set [1], `Cc1sc[n+](CC(=O)c2ccc(Br)cc2)c1C` [3-(2-[4^1-bromophenyl]-2-oxoethyl)-4,5-dimethylthiazolium bromide] had an IC50 of 2920 µM.

`Cc1c[n+](CC(N)=O)cs1.[Br-]` [3-(2-amino-2-oxoethyl)-5-methyl-thiazolium bromide]: the melting point was 179 to 180 °C. In data set [1], the midpoint of inhibition, the IC50, lay at 28.9 µM.

For the compound `NC(=O)C[n+]1c(N)sc2ccccc21.[Br-]`, the melting point was 234 to 235 °C.

The compound `NC(=O)C[n+]1ccsc1N.[Br-]` registered a melting point of 209 to 210 °C.

`COC(=O)C[n+]1ccsc1N.[Br-]` returned a melting point of 191 to 192 °C.

In turn, `COC(=O)C[n+]1csc(C)c1C` [3-(2-methoxy-2-oxoethyl)-4,5-dimethylthiazolium bromide] showed an IC50 in data set [1] of 138 µM. For the same compound, the inhibition at 30000 µM worked out at 50% in data set [2] (setting [3]) and 30% in data set [2] (setting [4]).

The compound `CC(=O)OCCc1sc[n+](CC(N)=O)c1C.[Br-]` showed a melting point of 233 to 234 °C.

On to `Nc1sc2ccccc2[n+]1N` [2,3-diamino-benzothiazolium mesitylenesulfonate], for which the melting point was 212 to 214 °C (dec.). The compound further registered an IC50 in data set [1] of 74.9 µM. Moreover, the inhibition at 30000 µM in data set [2] (at 30 mM, detection with anti-AGE-RNase antibody, read-out: % Inhibition Anti-AGE (at mM)) is 75%. The inhibition at 30000 µM in data set [2] (at 30 mM, detection with anti-BSA antibody, read-out: % Inhibition Anti-BSA (at mM)) was 35%.

Regarding `Cc1csc[n+]1CC(N)=O` [3-(2-amino-2-oxoethyl)-4-methyl-thiazolium bromide], the IC50 in data set [1] was found to be 116 µM; in data set [2] (setting [5]) it was 4700 µM; in data set [2] (setting [6]), 38600 µM.

For `O=C(O)C[n+]1csc2ccccc21.[Br-]` [3-(carboxymethyl)benzothiazolium bromide, 3-(carboxymethyl)-benzothiazolium bromide], the melting point was 250 °C (dec.). Moreover, the inhibition at 30000 µM in data set [2] (setting [3]) came to 63.7%. For the same compound, the inhibition at 30000 µM in data set [2] (setting [4]) was determined as 17.9%.

With `COC(=O)C[n+]1csc2ccccc21` [3-(2-methoxy-2-oxoethyl)-benzothiazolium bromide], the IC50 stood at 1200 µM in data set [2] (setting [5]) and 25900 µM in data set [2] (setting [6]).

`COC(=O)C[n+]1c(N)sc2ccccc21.[Br-]` showed a melting point of 236 to 237 °C.

`COC(=O)C[n+]1ccsc1` [3-(2-Methoxy-2-oxoethyl)thiazolium bromide] gave an IC50 in data set [1] of 138 µM. For the same compound, the inhibition at 30000 µM in data set [2] (setting [3]) came to 38%; in data set [2] (setting [4]), 41%.

Compound `CC(=O)C[n+]1ccsc1.[Cl-]` [3-(2-methyl-2-oxoethyl)thiazolium chloride] yielded a melting point of 178 to 179 °C. For the same compound, in data set [2] (IC50 (mM) Anti-AGE, detection with anti-AGE-RNase antibody), the IC50 was 0.036 µM. Further, in data set [2] (IC50 (mM) Anti-BSA, detection with anti-BSA antibody), the midpoint of inhibition, the IC50, lay at 260 µM.

On to `O=C(C[n+]1csc2ccccc21)c1ccccc1.[Br-]`, for which the melting point was 240 to 241 °C (dec.).
